Test results from publication PMC6540285, “Evaluation of Protein Kinase Inhibitors with PLK4 Cross-Over Potential in a Pre-Clinical Model of Cancer” (International Journal of Molecular Sciences, 2019).

Legend:
[1] = target: ACVRL1 (ALK1) (Homo sapiens, UniProt P37023); assay: SelectScreen kinase profiling, LanthaScreen binding
[2] = target: AMPK (A1/B2/G2) (Homo sapiens, UniProt Q13131); assay: SelectScreen kinase profiling, ZLYTE; type: biochemical
[3] = target: AXL R499C (Homo sapiens, UniProt P30530, R499C); assay: SelectScreen kinase profiling, LanthaScreen binding
[4] = target: BRAF (Homo sapiens, UniProt P15056); assay: as above
[5] = target: CASK (Homo sapiens, UniProt O14936); assay: as above
Chain of CASK (O14936 whole entry): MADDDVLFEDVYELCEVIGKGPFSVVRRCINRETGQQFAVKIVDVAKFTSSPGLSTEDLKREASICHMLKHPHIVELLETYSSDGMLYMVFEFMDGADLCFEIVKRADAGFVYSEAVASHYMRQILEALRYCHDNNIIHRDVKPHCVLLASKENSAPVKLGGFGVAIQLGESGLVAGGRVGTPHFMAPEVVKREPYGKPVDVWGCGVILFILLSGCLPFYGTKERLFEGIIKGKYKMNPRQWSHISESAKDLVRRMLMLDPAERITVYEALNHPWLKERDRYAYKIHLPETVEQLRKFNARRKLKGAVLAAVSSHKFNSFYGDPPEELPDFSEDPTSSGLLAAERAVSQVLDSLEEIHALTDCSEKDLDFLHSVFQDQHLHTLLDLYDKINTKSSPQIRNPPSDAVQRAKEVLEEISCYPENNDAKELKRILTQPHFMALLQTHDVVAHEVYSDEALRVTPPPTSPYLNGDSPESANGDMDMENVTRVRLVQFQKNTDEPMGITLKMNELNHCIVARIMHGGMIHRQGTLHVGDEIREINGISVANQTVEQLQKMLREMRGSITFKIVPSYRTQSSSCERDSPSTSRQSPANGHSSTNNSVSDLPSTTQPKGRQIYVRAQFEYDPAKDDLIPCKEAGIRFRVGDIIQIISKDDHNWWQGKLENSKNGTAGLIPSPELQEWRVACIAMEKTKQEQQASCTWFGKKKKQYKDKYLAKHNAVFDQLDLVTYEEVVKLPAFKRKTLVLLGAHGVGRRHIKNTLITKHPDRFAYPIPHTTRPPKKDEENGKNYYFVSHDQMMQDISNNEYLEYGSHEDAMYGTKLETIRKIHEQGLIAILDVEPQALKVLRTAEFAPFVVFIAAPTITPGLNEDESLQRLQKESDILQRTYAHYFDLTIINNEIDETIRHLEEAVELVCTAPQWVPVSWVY

[6] = target: CDC42 BPA (MRCKA) (Homo sapiens, UniProt Q5VT25); assay: SelectScreen kinase profiling, ZLYTE; type: biochemical
[7] = target: CDK9 (Inactive) (Homo sapiens, UniProt P50750); assay: SelectScreen kinase profiling, LanthaScreen binding
[8] = target: CSF1R (FMS) (Homo sapiens, UniProt P07333); assay: SelectScreen kinase profiling, ZLYTE; type: biochemical
[9] = target: CSNK1D (CK1 delta) (Homo sapiens, UniProt P48730); assay: SelectScreen kinase profiling, ZLYTE; type: biochemical
[10] = target: CSNK2A1 (CK2 alpha 1) (Homo sapiens, UniProt P68400); assay: SelectScreen kinase profiling, ZLYTE; type: biochemical
[11] = target: EPHA1 (Homo sapiens, UniProt P21709); assay: SelectScreen kinase profiling, ZLYTE; type: biochemical; conditions: EPHA1, 10 µM
[12] = target: FYN A (Homo sapiens, UniProt P06241); assay: SelectScreen kinase profiling, LanthaScreen binding
Chain of FYN A (P06241 whole entry): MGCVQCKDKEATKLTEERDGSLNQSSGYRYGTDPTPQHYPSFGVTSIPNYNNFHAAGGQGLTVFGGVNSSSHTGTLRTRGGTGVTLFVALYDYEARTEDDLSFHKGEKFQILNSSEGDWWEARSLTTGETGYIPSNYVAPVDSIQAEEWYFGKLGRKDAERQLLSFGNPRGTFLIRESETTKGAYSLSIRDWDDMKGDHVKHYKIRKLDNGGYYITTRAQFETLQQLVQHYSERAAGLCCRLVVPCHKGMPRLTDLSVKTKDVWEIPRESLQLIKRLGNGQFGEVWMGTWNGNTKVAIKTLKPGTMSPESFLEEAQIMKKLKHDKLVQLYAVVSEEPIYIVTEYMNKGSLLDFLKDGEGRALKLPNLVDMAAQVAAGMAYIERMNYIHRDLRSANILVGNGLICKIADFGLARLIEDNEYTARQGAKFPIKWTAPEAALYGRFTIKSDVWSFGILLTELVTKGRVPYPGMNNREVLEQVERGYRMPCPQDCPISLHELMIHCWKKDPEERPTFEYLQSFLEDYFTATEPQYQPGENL

[13] = target: T1, JAK2 JH1 JH2 V617F (Homo sapiens, UniProt O60674, V617F); assay: SelectScreen kinase profiling, ZLYTE; type: biochemical
T1 construct: JAK2 JH1 JH2 V617F

[14] = target: MAP3K8 (COT) (Homo sapiens, UniProt P41279); assay: SelectScreen kinase profiling, ZLYTE; type: biochemical
[15] = target: MAPK10 (JNK3) (Homo sapiens, UniProt P53779); assay: SelectScreen kinase profiling, LanthaScreen binding
[16] = target: MAPKAPK2 (Homo sapiens, UniProt P49137); assay: SelectScreen kinase profiling, ZLYTE; type: biochemical; conditions: MAPKAPK2, 10 µM
Chain of MAPKAPK2 (P49137 whole entry): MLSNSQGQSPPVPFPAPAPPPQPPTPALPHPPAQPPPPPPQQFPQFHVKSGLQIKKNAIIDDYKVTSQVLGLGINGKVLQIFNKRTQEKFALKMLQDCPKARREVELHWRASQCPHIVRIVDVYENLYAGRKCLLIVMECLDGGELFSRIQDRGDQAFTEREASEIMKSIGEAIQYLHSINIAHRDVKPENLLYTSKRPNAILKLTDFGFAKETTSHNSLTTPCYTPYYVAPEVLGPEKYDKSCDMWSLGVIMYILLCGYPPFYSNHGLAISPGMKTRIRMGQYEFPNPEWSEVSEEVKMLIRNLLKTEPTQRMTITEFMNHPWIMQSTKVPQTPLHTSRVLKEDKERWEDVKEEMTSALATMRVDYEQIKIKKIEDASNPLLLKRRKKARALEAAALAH

[17] = target: MET (cMet) (Homo sapiens, UniProt P08581); assay: SelectScreen kinase profiling, ZLYTE; type: biochemical
[18] = target: NEK1 (Homo sapiens, UniProt Q96PY6); assay: SelectScreen kinase profiling, ZLYTE; type: biochemical; conditions: NEK1, 10 µM
[19] = target: PDGFRA (PDGFR alpha) (Homo sapiens, UniProt P16234); assay: SelectScreen kinase profiling, ZLYTE; type: biochemical
[20] = target: PHKG1 (Homo sapiens, UniProt Q16816); assay: SelectScreen kinase profiling, ZLYTE; type: biochemical; conditions: PHKG1, 10 µM
[21] = target: PIK3C2A (PI3K-C2 alpha) (Homo sapiens, UniProt O00443); assay: SelectScreen kinase profiling, Adapta; type: biochemical
[22] = target: PIK3CG (p110 gamma) (Homo sapiens, UniProt P48736); assay: SelectScreen kinase profiling, Adapta; type: biochemical
Chain of PIK3CG (p110 gamma) (P48736 whole entry): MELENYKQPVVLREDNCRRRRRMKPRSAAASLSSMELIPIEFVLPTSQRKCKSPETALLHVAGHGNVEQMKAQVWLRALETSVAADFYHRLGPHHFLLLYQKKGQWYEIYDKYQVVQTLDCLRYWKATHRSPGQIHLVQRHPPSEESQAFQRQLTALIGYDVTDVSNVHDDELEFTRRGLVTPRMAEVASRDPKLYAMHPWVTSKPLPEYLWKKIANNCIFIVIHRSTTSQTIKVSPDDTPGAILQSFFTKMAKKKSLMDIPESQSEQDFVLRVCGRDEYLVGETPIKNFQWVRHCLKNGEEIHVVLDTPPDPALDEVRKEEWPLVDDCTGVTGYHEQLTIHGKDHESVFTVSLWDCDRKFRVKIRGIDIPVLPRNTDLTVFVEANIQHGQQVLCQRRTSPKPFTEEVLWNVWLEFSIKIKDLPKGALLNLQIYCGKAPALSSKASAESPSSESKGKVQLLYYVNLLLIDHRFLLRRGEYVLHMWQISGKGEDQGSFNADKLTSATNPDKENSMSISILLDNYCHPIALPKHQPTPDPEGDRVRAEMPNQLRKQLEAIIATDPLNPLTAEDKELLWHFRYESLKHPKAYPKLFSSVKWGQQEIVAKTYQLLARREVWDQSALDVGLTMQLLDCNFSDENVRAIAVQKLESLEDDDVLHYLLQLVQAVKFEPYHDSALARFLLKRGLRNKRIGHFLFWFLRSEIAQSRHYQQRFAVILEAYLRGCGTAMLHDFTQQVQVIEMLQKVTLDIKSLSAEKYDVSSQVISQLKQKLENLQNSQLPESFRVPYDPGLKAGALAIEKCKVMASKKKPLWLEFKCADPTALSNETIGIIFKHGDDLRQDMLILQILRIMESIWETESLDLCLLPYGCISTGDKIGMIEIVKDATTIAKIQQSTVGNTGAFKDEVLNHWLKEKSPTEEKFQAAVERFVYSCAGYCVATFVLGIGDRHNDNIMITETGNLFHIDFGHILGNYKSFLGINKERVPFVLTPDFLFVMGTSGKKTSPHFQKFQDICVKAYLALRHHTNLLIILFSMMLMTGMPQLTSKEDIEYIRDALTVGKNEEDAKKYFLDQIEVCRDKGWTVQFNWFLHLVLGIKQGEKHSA

[23] = target: PIM2 (Homo sapiens, UniProt Q9P1W9); assay: SelectScreen kinase profiling, ZLYTE; type: biochemical; conditions: PIM2, 10 µM
[24] = target: PRKCE (PKC epsilon) (Homo sapiens, UniProt Q02156); assay: SelectScreen kinase profiling, ZLYTE; type: biochemical
[25] = target: PRKCH (PKC eta) (Homo sapiens, UniProt P24723); assay: SelectScreen kinase profiling, ZLYTE; type: biochemical
[26] = target: PRKD1 (PKC mu) (Homo sapiens, UniProt Q15139); assay: SelectScreen kinase profiling, ZLYTE; type: biochemical
[27] = target: RET (Homo sapiens, UniProt P07949); assay: SelectScreen kinase profiling, ZLYTE; type: biochemical
[28] = target: RPS6KA4 (MSK2) (Homo sapiens, UniProt O75676); assay: SelectScreen kinase profiling, ZLYTE; type: biochemical
Chain of RPS6KA4 (MSK2) (O75676 whole entry): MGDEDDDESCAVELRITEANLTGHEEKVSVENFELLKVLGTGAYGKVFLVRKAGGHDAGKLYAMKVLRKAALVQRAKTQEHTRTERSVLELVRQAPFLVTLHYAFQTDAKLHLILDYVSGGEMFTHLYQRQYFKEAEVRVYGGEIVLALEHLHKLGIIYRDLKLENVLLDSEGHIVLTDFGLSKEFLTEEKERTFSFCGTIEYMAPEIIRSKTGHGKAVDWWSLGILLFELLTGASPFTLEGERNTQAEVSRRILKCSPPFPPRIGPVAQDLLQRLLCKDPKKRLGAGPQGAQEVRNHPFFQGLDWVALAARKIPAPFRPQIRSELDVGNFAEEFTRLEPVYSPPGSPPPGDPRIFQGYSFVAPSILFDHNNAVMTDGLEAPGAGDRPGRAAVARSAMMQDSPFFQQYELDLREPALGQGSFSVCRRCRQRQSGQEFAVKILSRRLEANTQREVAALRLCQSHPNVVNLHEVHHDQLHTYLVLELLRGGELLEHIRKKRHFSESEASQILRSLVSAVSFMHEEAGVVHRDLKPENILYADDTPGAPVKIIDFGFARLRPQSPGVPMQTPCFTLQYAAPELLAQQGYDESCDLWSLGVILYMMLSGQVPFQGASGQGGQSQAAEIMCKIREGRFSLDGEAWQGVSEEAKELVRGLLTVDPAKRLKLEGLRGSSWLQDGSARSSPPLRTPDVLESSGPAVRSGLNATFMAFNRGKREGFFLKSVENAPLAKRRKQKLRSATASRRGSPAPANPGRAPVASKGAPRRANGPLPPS

[29] = target: RPS6KA5 (MSK1) (Homo sapiens, UniProt O75582); assay: SelectScreen kinase profiling, ZLYTE; type: biochemical
[30] = target: SRPK2 (Homo sapiens, UniProt P78362); assay: SelectScreen kinase profiling, ZLYTE; type: biochemical; conditions: SRPK2, 10 µM
Chain of SRPK2 (P78362 whole entry): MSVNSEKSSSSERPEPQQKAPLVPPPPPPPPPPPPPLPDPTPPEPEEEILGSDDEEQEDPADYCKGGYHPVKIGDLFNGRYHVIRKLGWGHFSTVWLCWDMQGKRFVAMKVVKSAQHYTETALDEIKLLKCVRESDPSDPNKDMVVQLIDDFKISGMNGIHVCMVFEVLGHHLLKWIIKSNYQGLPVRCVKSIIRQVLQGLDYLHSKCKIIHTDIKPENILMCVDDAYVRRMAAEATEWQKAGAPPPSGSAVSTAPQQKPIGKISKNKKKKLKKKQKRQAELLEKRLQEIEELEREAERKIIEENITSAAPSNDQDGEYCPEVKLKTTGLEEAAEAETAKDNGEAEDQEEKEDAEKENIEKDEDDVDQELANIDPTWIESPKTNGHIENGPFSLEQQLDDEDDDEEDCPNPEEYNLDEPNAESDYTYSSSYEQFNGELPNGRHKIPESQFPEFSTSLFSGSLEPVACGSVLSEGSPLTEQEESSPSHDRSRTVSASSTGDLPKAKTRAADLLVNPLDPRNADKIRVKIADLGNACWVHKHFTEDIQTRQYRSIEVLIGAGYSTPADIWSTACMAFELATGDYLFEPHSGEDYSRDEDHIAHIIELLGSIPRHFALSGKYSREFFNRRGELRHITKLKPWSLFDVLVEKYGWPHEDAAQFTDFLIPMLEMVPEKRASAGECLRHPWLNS

[31] = target: STK38 (NDR) (Homo sapiens, UniProt Q15208); assay: SelectScreen kinase profiling, LanthaScreen binding
[32] = target: TESK1 (Homo sapiens, UniProt Q15569); assay: as above; conditions: TESK1, 10 µM
Excerpt: Kinase Technology % Inhibition Avg Kinase Technology % Inhibition Avg […]
TESK1 LanthaScreen 37 ZAP70 ZLYTE 24
cleavage (Thermo Fisher Scientific, USA)

[33] = target: YES1 (Homo sapiens, UniProt P07947); assay: SelectScreen kinase profiling, ZLYTE; type: biochemical; conditions: YES1, 10 µM
[34] = target: P450 2J2 (Homo sapiens, UniProt P51589); assay: SelectScreen P450 Vivid biochemical assay; conditions: 10000nM; substrate MOBFC
Chain of P450 2J2 (P51589 whole entry): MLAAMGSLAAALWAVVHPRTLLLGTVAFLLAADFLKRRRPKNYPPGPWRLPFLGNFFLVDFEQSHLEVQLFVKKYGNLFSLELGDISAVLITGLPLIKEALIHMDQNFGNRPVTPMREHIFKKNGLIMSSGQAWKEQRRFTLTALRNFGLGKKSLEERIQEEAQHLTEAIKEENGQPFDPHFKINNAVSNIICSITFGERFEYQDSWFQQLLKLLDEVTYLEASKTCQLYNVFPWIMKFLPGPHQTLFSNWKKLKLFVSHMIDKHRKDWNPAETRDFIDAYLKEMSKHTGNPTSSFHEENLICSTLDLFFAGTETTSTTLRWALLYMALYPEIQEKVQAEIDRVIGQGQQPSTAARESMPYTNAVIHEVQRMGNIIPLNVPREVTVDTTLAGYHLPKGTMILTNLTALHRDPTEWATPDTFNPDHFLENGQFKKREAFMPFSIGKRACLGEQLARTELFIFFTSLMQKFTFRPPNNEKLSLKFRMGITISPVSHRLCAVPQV

`O=C(c1ccc(/C=C/c2n[nH]c3ccccc23)cc1)N1CCNCC1` [KW-2449] was tested, and the inhibition at 10 µM [1] was 86%, the inhibition at 10 µM [2] was 99% and the inhibition at 10 µM [3] was 45%. For the same compound, the inhibition at 10 µM [4] was -1%, the inhibition at 10 µM [5] was -63% and the inhibition at 10 µM [6] was 32%. It also gave an inhibition at 10 µM [7] of 2%, an inhibition at 10 µM [8] of 99% and an inhibition at 10 µM [9] of 53%. For the same compound, the inhibition at 10 µM [10] was 18%, the inhibition at 10 µM [11] was 99% and the inhibition at 10 µM [12] was 72%. It also gave an inhibition at 10 µM [13] of 94%, an inhibition at 10 µM [14] of 54% and an inhibition at 10 µM [15] of 88%. It also gave an inhibition at 10 µM [16] of 28%, an inhibition at 10 µM [17] of 95% and an inhibition at 10 µM [18] of 67%. It also gave an inhibition at 10 µM [19] of 91%, an inhibition at 10 µM [20] of 100% and an inhibition at 10 µM [21] of 4%. The inhibition at 10 µM [22] was 8%, the inhibition at 10 µM [23] was 8% and the inhibition at 10 µM [24] was 10%. The inhibition at 10 µM [25] was -2%, the inhibition at 10 µM [26] was 97% and the inhibition at 10 µM [27] was 101%. For the same compound, the inhibition at 10 µM [28] was 75%, the inhibition at 10 µM [29] was 49% and the inhibition at 10 µM [30] was 32%. For the same compound, the inhibition at 10 µM [31] was 85%, the inhibition at 10 µM [32] was 37% and the inhibition at 10 µM [33] was 95%. For the same compound, the “% Inhibition 2J2 MOBFC” value [34] was 96%.
